Measurements: PubChem BioAssay (NCI)
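Exposure lasted 48 hours, with cells grown in 96-well plates and compounds tested at five concentrations. At the GI50, growth is halved. Definition used: TGI = concentration required for complete inhibition of growth.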

Assays:
Test in all cases: NCI anticancer screen, dose series, 48 h; in the data active = GI50 below about 0.43 µM; inactive = the rest
SK-MEL-5 melanoma = test system: SK-MEL-5 melanoma
BT-549 breast = test system: BT-549 breast
SW-620 colon = test system: SW-620 colon
HL-60(TB) leukemia = test system: HL-60(TB) leukemia
HOP-92 NSCLC = test system: HOP-92 NSCLC
DU-145 prostate = test system: DU-145 prostate
TK-10 renal = test system: TK-10 renal
MCF7 breast = test system: MCF7 breast
MOLT-4 leukemia = test system: MOLT-4 leukemia
SK-OV-3 ovarian = test system: SK-OV-3 ovarian
OVCAR-3 ovarian = test system: OVCAR-3 ovarian
KM12 colon = test system: KM12 colon
HCC-2998 colon = test system: HCC-2998 colon
NCI-H226 lung = test system: NCI-H226 lung
UO-31 renal = test system: UO-31 renal
PC-3 prostate = test system: PC-3 prostate
RXF 393 renal = test system: RXF 393 renal
SF-268 CNS = test system: SF-268 CNS
A498 renal = test system: A498 renal
ACHN renal = test system: ACHN renal
NCI-H23 lung = test system: NCI-H23 lung
HOP-62 NSCLC = test system: HOP-62 NSCLC
NCI/ADR-RES ovarian = test system: NCI/ADR-RES ovarian
RPMI-8226 leukemia = test system: RPMI-8226 leukemia
SF-539 CNS = test system: SF-539 CNS
OVCAR-4 ovarian = test system: OVCAR-4 ovarian
MDA-MB-231 breast = test system: MDA-MB-231 breast
K-562 leukemia = test system: K-562 leukemia
SNB-75 CNS = test system: SNB-75 CNS
A549 NSCLC = test system: A549 NSCLC
SR leukemia = test system: SR leukemia
COLO 205 colon = test system: COLO 205 colon
NCI-H460 lung = test system: NCI-H460 lung
NCI-H522 lung = test system: NCI-H522 lung
LOX IMVI melanoma = test system: LOX IMVI melanoma
HCT-116 colon = test system: HCT-116 colon
OVCAR-5 ovarian = test system: OVCAR-5 ovarian
MALME-3M melanoma = test system: MALME-3M melanoma
M14 melanoma = test system: M14 melanoma
786-0 renal = test system: 786-0 renal
SF-295 CNS = test system: SF-295 CNS
HCT-15 colon = test system: HCT-15 colon
UACC-62 melanoma = test system: UACC-62 melanoma
MDA-MB-435 = test system: MDA-MB-435
T-47D breast = test system: T-47D breast
EKVX NSCLC = test system: EKVX NSCLC
SK-MEL-2 melanoma = test system: SK-MEL-2 melanoma
SNB-19 CNS = test system: SNB-19 CNS
U251 CNS = test system: U251 CNS
CAKI-1 renal = test system: CAKI-1 renal
SK-MEL-28 melanoma = test system: SK-MEL-28 melanoma
IGROV1 ovarian = test system: IGROV1 ovarian
HT29 colon = test system: HT29 colon
OVCAR-8 ovarian = test system: OVCAR-8 ovarian
UACC-257 melanoma = test system: UACC-257 melanoma
CCRF-CEM leukemia = test system: CCRF-CEM leukemia
HS 578T breast = test system: HS 578T breast

O=C(c1ccc(N=Cc2ccccc2O)cc1)c1ccc(N=Cc2ccccc2O)cc1
> 100000 nM: TGI (SK-MEL-5 melanoma) | TGI (BT-549 breast) | TGI (SW-620 colon) | TGI (HL-60(TB) leukemia) | TGI (HOP-92 NSCLC) | TGI (DU-145 prostate) | TGI (TK-10 renal) | TGI (MCF7 breast) | TGI (MOLT-4 leukemia) | TGI (SK-OV-3 ovarian) | TGI (OVCAR-3 ovarian) | TGI (KM12 colon) | TGI (HCC-2998 colon) | TGI (NCI-H226 lung) | TGI (UO-31 renal) | TGI (PC-3 prostate) | TGI (RXF 393 renal) | TGI (SF-268 CNS) | TGI (A498 renal) | TGI (ACHN renal) | TGI (NCI-H23 lung) | TGI (HOP-62 NSCLC) | TGI (NCI/ADR-RES ovarian) | TGI (RPMI-8226 leukemia) | TGI (SF-539 CNS) | TGI (OVCAR-4 ovarian) | TGI (MDA-MB-231 breast) | TGI (K-562 leukemia) | TGI (SNB-75 CNS) | TGI (A549 NSCLC) | TGI (SR leukemia) | TGI (COLO 205 colon) | TGI (NCI-H460 lung) | TGI (NCI-H522 lung) | TGI (LOX IMVI melanoma) | TGI (HCT-116 colon) | TGI (OVCAR-5 ovarian) | TGI (MALME-3M melanoma) | TGI (M14 melanoma) | TGI (786-0 renal) | TGI (SF-295 CNS) | TGI (HCT-15 colon) | TGI (UACC-62 melanoma) | TGI (MDA-MB-435) | TGI (T-47D breast) | TGI (EKVX NSCLC) | TGI (SK-MEL-2 melanoma) | TGI (SNB-19 CNS) | TGI (U251 CNS) | TGI (CAKI-1 renal) | TGI (SK-MEL-28 melanoma) | TGI (IGROV1 ovarian) | TGI (HT29 colon)

COc1cc2nc3cc([N+](=O)[O-])ccc3c(NCCCNCCO)c2cc1OC
16700 nM: TGI (CAKI-1 renal)
438 nM: TGI (HOP-92 NSCLC)
active: GI50 (BT-549 breast) 297 nM | GI50 (SW-620 colon) 210 nM | GI50 (HOP-92 NSCLC) 148 nM | GI50 (DU-145 prostate) 194 nM | GI50 (TK-10 renal) 276 nM | GI50 (MCF7 breast) 120 nM | GI50 (MOLT-4 leukemia) 244 nM | GI50 (SK-OV-3 ovarian) 265 nM | GI50 (OVCAR-3 ovarian) 244 nM | GI50 (OVCAR-8 ovarian) 202 nM | GI50 (KM12 colon) 285 nM | GI50 (NCI-H226 lung) 196 nM | GI50 (PC-3 prostate) 213 nM | GI50 (RXF 393 renal) 186 nM | GI50 (SF-268 CNS) 126 nM | GI50 (A498 renal) 214 nM | GI50 (ACHN renal) 256 nM | GI50 (NCI-H23 lung) 143 nM | GI50 (HOP-62 NSCLC) 146 nM | GI50 (SF-539 CNS) 191 nM | GI50 (OVCAR-4 ovarian) 114 nM | GI50 (MDA-MB-231 breast) 130 nM | GI50 (UACC-257 melanoma) 342 nM | GI50 (SNB-75 CNS) 128 nM | GI50 (A549 NSCLC) 255 nM | GI50 (SR leukemia) 238 nM | GI50 (COLO 205 colon) 162 nM | GI50 (NCI-H460 lung) 264 nM | GI50 (NCI-H522 lung) 41 nM | GI50 (LOX IMVI melanoma) 243 nM | GI50 (HCT-116 colon) 115 nM | GI50 (OVCAR-5 ovarian) 220 nM | GI50 (CCRF-CEM leukemia) 211 nM | GI50 (MALME-3M melanoma) 189 nM | GI50 (M14 melanoma) 205 nM | GI50 (786-0 renal) 239 nM | GI50 (SF-295 CNS) 182 nM | GI50 (MDA-MB-435) 179 nM | GI50 (T-47D breast) 205 nM | GI50 (EKVX NSCLC) 353 nM | GI50 (SK-MEL-2 melanoma) 187 nM | GI50 (SNB-19 CNS) 137 nM | GI50 (U251 CNS) 149 nM | GI50 (IGROV1 ovarian) 225 nM | GI50 (HS 578T breast) 184 nM | GI50 (HT29 colon) 212 nM
4630 nM: TGI (EKVX NSCLC)
923 nM: TGI (TK-10 renal)
604 nM: TGI (SF-295 CNS)
4340 nM: TGI (RPMI-8226 leukemia)
> 100000 nM: TGI (NCI/ADR-RES ovarian)
1710 nM: TGI (SR leukemia)
899 nM: TGI (OVCAR-5 ovarian)
19500 nM: TGI (HCT-15 colon)
473 nM: TGI (RXF 393 renal)
385 nM: TGI (OVCAR-4 ovarian) | TGI (HCT-116 colon)
260 nM: TGI (SNB-75 CNS)
505 nM: TGI (NCI-H226 lung)
843 nM: TGI (KM12 colon)
213 nM: TGI (NCI-H522 lung)
962 nM: TGI (BT-549 breast)
4320 nM: TGI (HL-60(TB) leukemia)
635 nM: TGI (A549 NSCLC)
422 nM: TGI (HOP-62 NSCLC)
374 nM: TGI (MDA-MB-231 breast)
622 nM: TGI (OVCAR-3 ovarian)
664 nM: TGI (LOX IMVI melanoma)
645 nM: TGI (DU-145 prostate)
1410 nM: TGI (CCRF-CEM leukemia)
951 nM: TGI (UACC-257 melanoma)
616 nM: TGI (NCI-H23 lung)
495 nM: TGI (SNB-19 CNS)
531 nM: TGI (T-47D breast)
569 nM: TGI (HT29 colon)
433 nM: TGI (U251 CNS)
914 nM: TGI (ACHN renal)
527 nM: TGI (A498 renal)
672 nM: TGI (IGROV1 ovarian)
612 nM: TGI (HS 578T breast)
5400 nM: TGI (MOLT-4 leukemia)
624 nM: TGI (NCI-H460 lung)
359 nM: TGI (MALME-3M melanoma)
1030 nM: TGI (SW-620 colon)
896 nM: TGI (786-0 renal)
437 nM: TGI (M14 melanoma)
711 nM: TGI (SK-OV-3 ovarian)
inactive: GI50 (HL-60(TB) leukemia) 463 nM | GI50 (UO-31 renal) 2150 nM | GI50 (NCI/ADR-RES ovarian) 31400 nM | GI50 (RPMI-8226 leukemia) 567 nM | GI50 (HCT-15 colon) 3590 nM | GI50 (CAKI-1 renal) 2620 nM
483 nM: TGI (PC-3 prostate)
14200 nM: TGI (UO-31 renal)
336 nM: TGI (MDA-MB-435)
721 nM: TGI (OVCAR-8 ovarian)
478 nM: TGI (SF-268 CNS) | TGI (SF-539 CNS)
351 nM: TGI (COLO 205 colon)
626 nM: TGI (MCF7 breast)
389 nM: TGI (SK-MEL-2 melanoma)

CCCOC(C)OCCC#CCC(C)OC(=O)CC(Cl)(Cl)Cl (configuration not stated)
inactive: GI50 (HL-60(TB) leukemia) 46.5 µg/mL | GI50 (HCT-116 colon) 50.8 µg/mL | GI50 (CCRF-CEM leukemia) 22.6 µg/mL | GI50 (EKVX NSCLC) 98.4 µg/mL | GI50 (HS 578T breast) 56.8 µg/mL
